Measured values published in patent US20240218022A1, “ANTI-VISTA MACROCYCLIC PEPTIDES AND COMPOSITIONS” (BRISTOL-MYERS SQUIBB COMPANY, priority 2022, published 2024).
Starred links: 1 amine or outer side, 2 acyl side, 3 side chain; linkers in the order of their positions; H or OH if unused. Positions of bridges follow the written chain, without caps; N, C: chain ends. Non-standard residues stand in square brackets, D forms with d. Residues, ends and D or L forms follow the SMILES beside them. Phe(3-Me) = Cc1cccc(C[C@H](N)C(=O)O)c1; 2Nal = N[C@@H](Cc1ccc2ccccc2c1)C(=O)O; βAsp = O=C(O)[C@H](CC(=O)[*:2])N[*:1]; Cit = NC(=O)NCCC[C@H](N)C(=O)O; NMeL = CN[C@@H](CC(C)C)C(=O)O; Ahp(2) = CCCCC[C@H](N)C(=O)O; NMeNle = CCCC[C@H](NC)C(=O)O; Tle = CC(C)(C)[C@H](N)C(=O)O; NHexGly = CCCCCCNCC(=O)O; Nle = CCCC[C@H](N)C(=O)O; Aun = NCCCCCCCCCCC(=O)O; AEEA = NCCOCCOCC(=O)O

Molecular target: T1, mouse VISTA (mVISTA) (Mus musculus, UniProt Q9D659)
T1 construct: expressed in transfected cells; host or cells: Human embryonic kidney 293T cells
T1 sequence (Q9D659 33-308): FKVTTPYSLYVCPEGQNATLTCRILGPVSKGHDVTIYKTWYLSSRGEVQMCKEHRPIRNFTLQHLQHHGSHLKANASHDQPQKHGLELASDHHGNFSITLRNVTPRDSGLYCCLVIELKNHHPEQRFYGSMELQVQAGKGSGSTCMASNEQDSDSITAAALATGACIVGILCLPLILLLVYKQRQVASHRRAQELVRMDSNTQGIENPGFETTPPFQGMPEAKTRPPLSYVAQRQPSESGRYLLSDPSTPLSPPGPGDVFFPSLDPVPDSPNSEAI
Assay: Cell-Based Binding High-Content Assay For mVISTA (HC CBA mVISTA)
Conditions: cell-based binding high-content assay, mVISTA; read-out: HC CBA miPr ISTA IC50
Procedure, shortened: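 mVISTA-293T, 4,000 cells/well; cpd ± washout step; biotin-peptide 2 nM final, 30 min RT; SA-Alexa 647 30 min; formaldehyde/Hoechst fix; HCS imaging; 4PL IC50.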

Row | SMILES | IC50 [nM]
1 | CCCCCCN1CC(=O)N[C@@H](Cc2ccc(O)cc2)C(=O)N[C@@H](CCCC)C(=O)N[C@@H](CC(=O)O)C(=O)N[C@@H](CCCNC(N)=O)C(=O)N[C@@H](CC(C)C)C(=O)N[C@@H](CCCCC)C(=O)N2CCC[C@H]2C(=O)N[C@@H](C(C)C)C(=O)N[C@@H](CC(N)=O)C(=O)N[C@H](C(=O)NCC(=O)NCCOCCOCC(=O)N[C@@H](CC(=O)O)C(=O)NCCOCCOCC(=O)NCCCCCCCCCCC(=O)O)CSCC(=O)N[C@@H](Cc2ccccc2)C(=O)N[C@@H](Cc2ccc(O)cc2)C(=O)N[C@@H](CC(=O)O)C1=O [compound 2018] ({CH2CO}-FYD[NHexGly]Y[Nle]D[Cit]L[Ahp(2)]PVNCG[AEEA]D[AEEA][Aun]-OH; thioether N-14) | 20.4
2 | CCCCCCN1CC(=O)N[C@@H](Cc2ccc(O)cc2)C(=O)N[C@@H](CCCC)C(=O)NCC(=O)N[C@@H](CCCNC(N)=O)C(=O)N[C@@H](CC(C)C)C(=O)N[C@@H](CCCCC)C(=O)N2CCC[C@H]2C(=O)N[C@@H](C(C)C)C(=O)N[C@@H](CC(=O)O)C(=O)N[C@H](C(=O)NCC(=O)NCCOCCOCC(=O)N[C@@H](CC(=O)O)C(=O)NCCOCCOCC(=O)NCCCCCCCCCCC(=O)O)CSCC(=O)N[C@@H](Cc2cccc(C)c2)C(=O)N[C@@H](Cc2ccc(O)cc2)C(=O)N[C@@H](CC(=O)O)C1=O [compound 2019] ({CH2CO}-[Phe(3-Me)]YD[NHexGly]Y[Nle]G[Cit]L[Ahp(2)]PVDCG[AEEA]D[AEEA][Aun]-OH; thioether N-14) | 14.4
3 | CCCCCCN1CC(=O)N[C@@H](Cc2ccc(O)cc2)C(=O)N[C@@H](CCCC)C(=O)N[C@@H](CC(N)=O)C(=O)N[C@@H](CCCNC(=N)N)C(=O)N(C)[C@@H](CCCC)C(=O)N[C@@H](CCCCC)C(=O)N2CCC[C@H]2C(=O)N[C@@H](C(C)(C)C)C(=O)N[C@@H](CO)C(=O)N[C@H](C(=O)N[C@@H](CC(=O)NCCOCCOCC(=O)N[C@@H](CC(=O)O)C(=O)NCCOCCOCC(=O)NCCCCCCCCCCC(=O)O)C(=O)O)CSCC(=O)N[C@@H](Cc2ccccc2)C(=O)N[C@@H](Cc2ccc(O)cc2)C(=O)N[C@@H](CC(=O)O)C1=O [compound 2021] ({CH2CO}-FYD[NHexGly]Y[Nle]NR[NMeNle][Ahp(2)]P[Tle]SC[βAsp][AEEA]D[AEEA][Aun]-OH; thioether N-14) | 19.5
4 | CCCCCCN1CC(=O)N[C@@H](Cc2ccc(O)cc2)C(=O)N[C@@H](CCCC)C(=O)N[C@@H](CC(N)=O)C(=O)N[C@@H](CCCNC(=N)N)C(=O)N(C)[C@@H](CCCC)C(=O)N[C@@H](CCCCC)C(=O)N2CCC[C@H]2C(=O)N[C@@H](C(C)(C)C)C(=O)N[C@@H](CO)C(=O)N[C@H](C(=O)N[C@@H](CC(=O)NCCOCCOCC(=O)N[C@@H](CC(=O)O)C(=O)NCCOCCOCC(=O)NCCCCCCCCCCC(=O)O)C(=O)O)CSCC(=O)N[C@@H](Cc2ccccc2)C(=O)N[C@@H](Cc2c[nH]c3ccccc23)C(=O)N[C@@H](CC(=O)O)C1=O [compound 2022] ({CH2CO}-FWD[NHexGly]Y[Nle]NR[NMeNle][Ahp(2)]P[Tle]SC[βAsp][AEEA]D[AEEA][Aun]-OH; thioether N-14) | 22.7
5 | CCCCCCN1CC(=O)N[C@@H](Cc2ccc(O)cc2)C(=O)N[C@@H](CCCC)C(=O)N[C@@H](CC(N)=O)C(=O)N[C@@H](CCCNC(=N)N)C(=O)N(C)[C@@H](CCCC)C(=O)N[C@@H](CCCCC)C(=O)N2CCC[C@H]2C(=O)N[C@@H](C(C)(C)C)C(=O)N[C@@H](CO)C(=O)N[C@H](C(=O)N[C@@H](CC(=O)NCCOCCOCC(=O)N[C@@H](CC(=O)O)C(=O)NCCOCCOCC(=O)NCCCCCCCCCCC(=O)O)C(=O)O)CSCC(=O)N[C@@H](Cc2ccc3ccccc3c2)C(=O)N[C@@H](Cc2ccc(O)cc2)C(=O)N[C@@H](CC(=O)O)C1=O [compound 2023] ({CH2CO}-[2Nal]YD[NHexGly]Y[Nle]NR[NMeNle][Ahp(2)]P[Tle]SC[βAsp][AEEA]D[AEEA][Aun]-OH; thioether N-14) | 41.2
6 | CCCCCCN1CC(=O)N[C@@H](Cc2ccc(O)cc2)C(=O)N[C@@H](CCCC)C(=O)N[C@@H](CC(N)=O)C(=O)N[C@@H](CCCNC(=N)N)C(=O)N(C)[C@@H](CCCC)C(=O)N[C@@H](CCCCC)C(=O)N2CCC[C@H]2C(=O)N[C@@H](C(C)(C)C)C(=O)N[C@@H](CO)C(=O)N[C@H](C(=O)N[C@@H](CC(=O)NCCOCCOCC(=O)N[C@@H](CC(=O)O)C(=O)NCCOCCOCC(=O)NCCCCCCCCCCC(=O)O)C(=O)O)CSCC(=O)N[C@@H](Cc2cccc(C)c2)C(=O)N[C@@H](Cc2c[nH]c3ccccc23)C(=O)N[C@@H](CC(=O)O)C1=O [compound 2024] ({CH2CO}-[Phe(3-Me)]WD[NHexGly]Y[Nle]NR[NMeNle][Ahp(2)]P[Tle]SC[βAsp][AEEA]D[AEEA][Aun]-OH; thioether N-14) | 40.3
7 | CCCCCCN1CC(=O)N[C@@H](Cc2ccc(O)cc2)C(=O)N[C@@H](CC(C)C)C(=O)N[C@@H](CC(N)=O)C(=O)N[C@@H](CCCNC(=N)N)C(=O)N(C)[C@@H](CC(C)C)C(=O)N[C@@H](CCCCC)C(=O)N2CCC[C@H]2C(=O)N[C@@H](C(C)(C)C)C(=O)N[C@@H](CC(=O)O)C(=O)N[C@H](C(=O)N[C@@H](CC(=O)NCCOCCOCC(=O)N[C@@H](CC(=O)O)C(=O)NCCOCCOCC(=O)NCCCCCCCCCCC(=O)O)C(=O)O)CSCC(=O)N[C@@H](Cc2ccccc2)C(=O)N[C@@H](Cc2ccc(O)cc2)C(=O)N[C@@H](CC(=O)O)C1=O [compound 2026] ({CH2CO}-FYD[NHexGly]YLNR[NMeL][Ahp(2)]P[Tle]DC[βAsp][AEEA]D[AEEA][Aun]-OH; thioether N-14) | 17.5
8 | CCCCCCN1CC(=O)N[C@@H](Cc2ccc(O)cc2)C(=O)N[C@@H](CC(C)C)C(=O)N[C@@H](CC(N)=O)C(=O)N[C@@H](CCCNC(=N)N)C(=O)N(C)[C@@H](CCCC)C(=O)N[C@@H](CCCCC)C(=O)N2CCC[C@H]2C(=O)N[C@@H](C(C)(C)C)C(=O)N[C@@H](CC(=O)O)C(=O)N[C@H](C(=O)N[C@@H](CC(=O)NCCOCCOCC(=O)N[C@@H](CC(=O)O)C(=O)NCCOCCOCC(=O)NCCCCCCCCCCC(=O)O)C(=O)O)CSCC(=O)N[C@@H](Cc2ccccc2)C(=O)N[C@@H](Cc2c[nH]c3ccccc23)C(=O)N[C@@H](CC(=O)O)C1=O [compound 2027] ({CH2CO}-FWD[NHexGly]YLNR[NMeNle][Ahp(2)]P[Tle]DC[βAsp][AEEA]D[AEEA][Aun]-OH; thioether N-14) | 27.5
9 | CCCCCCN1CC(=O)N[C@@H](Cc2ccc(O)cc2)C(=O)N[C@@H](CC(C)C)C(=O)N[C@@H](CC(N)=O)C(=O)N[C@@H](CCCNC(=N)N)C(=O)N(C)[C@@H](CCCC)C(=O)N[C@@H](CCCCC)C(=O)N2CCC[C@H]2C(=O)N[C@@H](C(C)(C)C)C(=O)N[C@@H](CC(=O)O)C(=O)N[C@H](C(=O)N[C@@H](CC(=O)NCCOCCOCC(=O)N[C@@H](CC(=O)O)C(=O)NCCOCCOCC(=O)NCCCCCCCCCCC(=O)O)C(=O)O)CSCC(=O)N[C@@H](Cc2ccccc2)C(=O)N[C@@H](Cc2ccc(O)cc2)C(=O)N[C@@H](CC(=O)O)C1=O [compound 2029] ({CH2CO}-FYD[NHexGly]YLNR[NMeNle][Ahp(2)]P[Tle]DC[βAsp][AEEA]D[AEEA][Aun]-OH; thioether N-14) | 17.5
10 | CCCCCCN1CC(=O)N[C@@H](Cc2ccc(O)cc2)C(=O)N[C@@H](CC(C)C)C(=O)N[C@@H](CC(N)=O)C(=O)N[C@@H](CCCNC(=N)N)C(=O)N(C)[C@@H](CCCC)C(=O)N[C@@H](CCCCC)C(=O)N2CCC[C@H]2C(=O)N[C@@H](C(C)(C)C)C(=O)N[C@@H](CO)C(=O)N[C@H](C(=O)N[C@@H](CC(=O)NCCOCCOCC(=O)N[C@@H](CC(=O)O)C(=O)NCCOCCOCC(=O)NCCCCCCCCCCC(=O)O)C(=O)O)CSCC(=O)N[C@@H](Cc2ccccc2)C(=O)N[C@@H](Cc2ccc(O)cc2)C(=O)N[C@@H](CC(=O)O)C1=O [compound 2030] ({CH2CO}-FYD[NHexGly]YLNR[NMeNle][Ahp(2)]P[Tle]SC[βAsp][AEEA]D[AEEA][Aun]-OH; thioether N-14) | 22.8
11 | CCCCCCN1CC(=O)N[C@@H](Cc2ccc(O)cc2)C(=O)N[C@@H](CC(C)C)C(=O)N[C@@H](CC(N)=O)C(=O)N[C@@H](CCCNC(=N)N)C(=O)N(C)[C@@H](CC(C)C)C(=O)N[C@@H](CCCCC)C(=O)N2CCC[C@H]2C(=O)N[C@@H](C(C)(C)C)C(=O)N[C@@H](CO)C(=O)N[C@H](C(=O)N[C@@H](CC(=O)NCCOCCOCC(=O)N[C@@H](CC(=O)O)C(=O)NCCOCCOCC(=O)NCCCCCCCCCCC(=O)O)C(=O)O)CSCC(=O)N[C@@H](Cc2ccccc2)C(=O)N[C@@H](Cc2ccc(O)cc2)C(=O)N[C@@H](CC(=O)O)C1=O [compound 2031] ({CH2CO}-FYD[NHexGly]YLNR[NMeL][Ahp(2)]P[Tle]SC[βAsp][AEEA]D[AEEA][Aun]-OH; thioether N-14) | 14.5
12 | CCCCCCN1CC(=O)N[C@@H](Cc2ccc(O)cc2)C(=O)N[C@@H](CC(C)C)C(=O)N[C@@H](CC(N)=O)C(=O)N[C@@H](CCCNC(=N)N)C(=O)N(C)[C@@H](CC(C)C)C(=O)N[C@@H](CCCCC)C(=O)N2CCC[C@H]2C(=O)N[C@@H](C(C)(C)C)C(=O)N[C@@H](CC(=O)O)C(=O)N[C@H](C(=O)N[C@@H](CC(=O)NCCOCCOCC(=O)N[C@@H](CC(=O)O)C(=O)NCCOCCOCC(=O)NCCCCCCCCCCC(=O)O)C(=O)O)CSCC(=O)N[C@@H](Cc2ccccc2)C(=O)N[C@@H](Cc2c[nH]c3ccccc23)C(=O)N[C@@H](CC(=O)O)C1=O [compound 2032] ({CH2CO}-FWD[NHexGly]YLNR[NMeL][Ahp(2)]P[Tle]DC[βAsp][AEEA]D[AEEA][Aun]-OH; thioether N-14) | 28.1
